Paper PMC11996864, “A small-molecule inhibitor of BCL10-MALT1 interaction abrogates progression of diffuse large B cell lymphoma” (The Journal of Clinical Investigation, 2025)
“And” between values parts separate entries of the source, which are not always exact repeats. Equal entries are not always repeated.

Key:
[1] = tested on: IκB phosphorylation in TMD8 cells; experiment: Constitutive IκB phosphorylation, Western blot; assay type: cell-based, human; settings: for IκB phosphorylation in TMD8 cells: result in words
Protocol: Western blot analysis of RelB and N4BP1 cleavage was used to test the effect of small molecules on MALT1 protease activity. To this end, 3 million Jurkat T cells were pretreated with compounds for 24 hours in serum-free media, and then 5 μM MG-132 was added for 1 hour before stimulation with CD3/CD28 (Stemcell Technologies, catalog 10971), and lysed in RIPA buffer (Millipore, catalog 20-188) with protease and phosphatase inhibitor cocktail (Pierce, catalog 78446). IKKα/β phosphorylation and IκBα phosphorylation were used as measures of MALT1 scaffolding activity, while ERK1/2 phosphorylation was used as a control. Two million Jurkat T cells were treated with 1 μM M1i-124, 1 μM M1i-124d1, or DMSO in serum-free media for 16 hours, stimulated with CD3/CD28 for 0, 5, 10, or 20 minutes, and then immediately lysed in RIPA buffer with protease and phosphatase inhibitors. For experiments evaluating RelB cleavage and phosphorylation of IκBα in TMD8 cells, cells were treated with compounds for 24 hours in media containing 5% FBS. For RelB Western blot analysis, 5 μM MG-132 (Cell Signaling Technology, catalog 2194s) was added 4 hours before lysis in RIPA lysis buffer with protease/phosphatase inhibitors.

BCL10-MALT1 interaction = biological target: T1, BCL10-MALT1 interaction (Homo sapiens, UniProt Q9UDY8); experiment: ELISA-based BCL10-MALT1 protein-protein interaction assay; settings: MALT1 preincubated 1 hour with compound; read-out: IC50, inhibition of MALT1 binding to immobilized BCL10
T1 construct: GST-tagged recombinant human full-length MALT1 protein in solution; purchased Novus Biologicals H00010892-P01 (MALT1); NBP1-99064 (BCL10)
T1 sequence (Q9UDY8 1-813 isoform Q9UDY8-2): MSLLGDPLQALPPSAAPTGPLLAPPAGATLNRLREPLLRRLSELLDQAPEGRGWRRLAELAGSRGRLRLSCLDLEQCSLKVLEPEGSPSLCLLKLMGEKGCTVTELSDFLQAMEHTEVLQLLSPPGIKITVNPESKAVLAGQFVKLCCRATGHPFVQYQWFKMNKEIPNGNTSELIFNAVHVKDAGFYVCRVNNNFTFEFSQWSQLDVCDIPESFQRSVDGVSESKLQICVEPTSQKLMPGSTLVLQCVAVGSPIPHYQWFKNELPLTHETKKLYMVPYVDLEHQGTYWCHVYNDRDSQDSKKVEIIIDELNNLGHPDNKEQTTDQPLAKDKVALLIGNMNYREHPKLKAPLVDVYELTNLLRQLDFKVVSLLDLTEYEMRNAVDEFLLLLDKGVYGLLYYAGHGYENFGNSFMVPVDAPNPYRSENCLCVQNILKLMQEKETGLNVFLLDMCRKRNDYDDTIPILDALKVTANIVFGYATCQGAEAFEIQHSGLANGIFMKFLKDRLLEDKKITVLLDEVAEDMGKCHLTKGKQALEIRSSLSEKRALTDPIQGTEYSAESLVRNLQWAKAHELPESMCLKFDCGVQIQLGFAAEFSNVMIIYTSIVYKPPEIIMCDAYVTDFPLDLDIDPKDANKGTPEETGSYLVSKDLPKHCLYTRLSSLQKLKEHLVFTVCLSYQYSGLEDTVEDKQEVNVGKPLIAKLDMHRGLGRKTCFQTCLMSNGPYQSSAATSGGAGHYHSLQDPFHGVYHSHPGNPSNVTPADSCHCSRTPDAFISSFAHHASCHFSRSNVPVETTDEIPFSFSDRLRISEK
Excerpt: A 96-well ELISA was employed, whereby His-tagged full-length BCL10 protein was immobilized in wells and exposed to GST-tagged recombinant human full-length MALT1 protein in solution, followed by detection with anti-MALT1 antibody. Details are provided in Supplemental Methods.
Plasmids. Plasmids for transfection were verified with Sanger Sequencing. Unless otherwise indicated, plasmids were made by subcloning cDNA fragments from constructs described in previous publications, as noted, and/or site directed mutagenesis. Plasmids in the pcDNA3 or pcDNA3.1 backbone include HA-MALT1(isoform B) (2), HA-MALT1(DD+Ig1-2) (aa 1- […]
MALT1(Ig1-2) V189R, HA-MALT1(Ig1-2) W203_Q205delinsAAA (Vector Builder), HA-MALT1(Ig1-2) H257_Q259delinsAAA (Vector Builder), HA-MALT1(Ig1-2) […]
ELISA-based protein-protein interaction assay. […] The plate was read at 450 nm using a spectrophotometer (Molecular Devices SpectraMax i3). […]
Cytokine ELISAs. Cytokines in cell culture supernatants were measured 20-24h after treatment with 0, 0.01, 0.03, 0.1, 0.3, 1, or 3 µM of compounds using the following ELISA kits according to the manufacturer’s instructions: Human IL-2 ELISA (BioLegend Cat# 431804), Human IL-6 ELISA (BioLegend Cat# 430504), and Human IL-10 ELISA (BioLegend Cat# 430604). […]
Mouse T-Activator CD3/C28. Supernatant was collected at 24 hours and mouse IL-2 levels were analyzed via ELISA (R&D Systems, Cat# DY402-05).

Compound: O=S(=O)(NCc1ccc2c(c1)OCO2)c1ccc(Cc2ccc(S(=O)(=O)NCc3ccc4c(c3)OCO4)cc2)cc1 [M1i-124]
- IκB phosphorylation in TMD8 cells [1]: marked reduction in IκB phosphorylation
- IC50 (BCL10-MALT1 interaction): 16 µM

Compound: COc1ccc(CNS(=O)(=O)c2ccc(Cc3ccc(S(=O)(=O)NCc4ccc(OC)cc4)cc3)cc2)cc1 [M1i-124d1]
- pIkB (normalized) ([1]; TMD8, 1 μM, 24 hours): 0.264 and 0.345
- IκB phosphorylation in TMD8 cells [1]: marked reduction in IκB phosphorylation
- IC50 (BCL10-MALT1 interaction): 34 µM
